In patent US8904703B2, “Herbicide method and apparatus” (priority 2011, dated 2014):

What was measured:
[1] = tested on: Kudzu vines (pueraria lobata); assay: Field trials of helium gas applied to Kudzu vine root systems through a perforated tube; assay type: in vivo
Text: With respect to the helium canister 33, two canisters, each having 0.25 cubic meters of helium gas under a pressure (when full) of at least 260 pounds per square inch (PSI), for a total of 0.5 cubic meters at standard atmospheric pressure and temperature provide a suitable herbicidal effect when the canister 33 (only one of which canisters is shown in the drawing) are applied in sequence in accordance with the invention. […] Naturally, for Kudzu eradication over larger areas, large helium tanks also have been used with great success.
(§1) In operation, the chuck on a battery powered drill (not shown in the drawing) connects the drill to the drill shank 23. The tube 10 is placed near a Kudzu vine stem as that stem protrudes above the earth with the longitudinal tube axis 17 of the tube 10 generally perpendicular to the surface of earth 35 to press drill bit 11 against the soil. Preferably a 1.6 cm diameter black oxide coated drill bit is suitable for this purpose.
(§2) The drill is energized and the torque applied by the drill turns the tube 10 and the drill bit 11, causing the drill bit 11 and the balance of the tube 10 to bore into the earth. The drilling is continued until all of the perforations in the two perforation sets 12A and 22A are well below the surface of the earth, whereupon the drill is deactivated and disconnected from the shank 23.
(§3) A first of the two helium canisters 33 is then coupled through the flexible conduit 32 and the gas adapter 31 to the valve 28. Valve handle 34 is shifted to a valve open position and helium gas flows from the canister 33, through the valve 28 and into the hollow center 24 (FIG. 2) of the tube 10.
Once in the tube 10, under the gas pressure supplied by the helium canister 33, the helium gas disperses into soil 36 surrounding the tube 10 through the perforations in the sets 12A and 22A and migrates in the soil 36 to Kudzu vine root 37. Upon depletion of the helium in the canister 33, the valve handle 34 is shifted to close the valve 28. […]

[2] = tested on: surrounding plant life; assay: Field trials: effect of the Kudzu vine treatment on surrounding plant life; assay type: in vivo; conditions: observed through growth of new grass and new leaf growth
Text: as §1, §2, §3
Once in the tube 10, under the gas pressure supplied by the helium canister 33, the helium gas disperses into soil 36 surrounding the tube 10 through the perforations in the sets 12A and 22A and migrates in the soil 36 to Kudzu vine root 37. […]

## [He] [helium]
[1]; Balloon Time helium canisters, helium purity 94% to 96%, two canisters of 0.25 cubic meters applied in sequence
  Kudzu vine herbicidal result: produced the desired Kudzu vine herbicidal result
[1]; four weeks after exposure to helium, third test site
  Kudzu destroyed (estimated): ~95%
[1]; four weeks after exposure to helium, two test sites, about 0.5 cubic meters helium into soil near roots
  Kudzu vines destroyed: all of the Kudzu vines so treated were destroyed
[2]
  Effect of Kudzu vine treatment on surrounding plant life: surprisingly beneficial
